What was measured:
Assay type in all cases: in vivo
Alopecurus myosuroides = experiment: Pre-emergence herbicidal action, ALOMY; parameters: key: % activity: 100 = plants have died, 0 = like control plants; conditions: comparative experiment, 20 g of a.i./ha
Outline: (§1)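 Seeds sown in sandy loam in pots and covered with soil; compounds formulated as WP or EC were sprayed onto the soil surface as aqueous suspension/emulsion at 600 to 800 l/ha water with 0.2% wetting agent. Greenhouse growth; visual damage scored after 3 weeks versus untreated controls (100% = plants died, 0% = like control).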

Hordeum murinum [1] = experiment: Post-emergence herbicidal action, HORMU; parameters: key: % herbicidal action: 100 = plants died, 0 = like control; conditions: Dosage 80 g/ha
Description: [table] 2. Post-Emergence Herbicidal Action Against Harmful Plants Seeds of monocotyledonous and dicotyledonous weed and crop plants are laid out in sandy loam soil in wood-fiber pots, covered with soil and cultivated in a greenhouse under good growth conditions. 2 to 3 weeks after sowing, the test plants are treated at the one-leaf stage. The compounds of the invention, formulated in the form of wettable powders (WP) or as emulsion concentrates (EC), are then sprayed onto the green parts of the plants in the form of an aqueous suspension or emulsion at a water application rate equating to 600 to 800 l/ha, with addition of 0.2% wetting agent. After the test plants have been left to stand in the greenhouse under optimal growth conditions for about 3 weeks, the action of the preparations is assessed visually in comparison to untreated controls (herbicidal action in percent (%): 100% activity=the plants have died, 0% activity=like control plants). […] The tables below illustrate, in an exemplary manner, the post-emergence herbicidal action of the compounds according to the invention, the herbicidal activity being stated in percent. In the experiments that follow, herbicidal action of numerous inventive compounds and the known compounds that are structurally closest from D1 (WO 2012/028579 A1) and D2 (WO 2018/202535 A1) were compared under the above-specified conditions by the pre-emergence and post-emergence method. The example numbers given in the tables relate to the compounds disclosed in the respective documents. In addition to the compounds disclosed in D1 and D2, the following compounds V-1 to V-14 that are encompassed by D1 or D2 but are not compounds specified therein were used in the comparative experiments: • V-1: 2-(methylsulfanyl)-3-(methylsulfinyl)-N-(1-methyl-1H-tetrazol-5-yl)-4-(trifluoromethyl)benzamide • V-2: 2-(methylsulfanyl)-3-(methylsulfonyl)-N-(1-methyl-1H-tetrazol-5-yl)-4-(trifluoromethyl)benzamide • V-3: 2,3-bis(ethylsulfanyl)-N-(1-methyl-1H-tetrazol-5-yl)-4-(trifluoromethyl)benzamide • V-4: 2-chloro-3-(ethylsulfanyl)-N-(1-methyl-1H-tetrazol-5-yl)-4-(trifluoromethyl)benzamide • V-5: 2-chloro-4-iodo-3-(methylsulfanyl)-N-(1-methyl-1H-tetrazol-5-yl)benzamide • V-6: 2-chloro-4-iodo-3-(methylsulfinyl)-N-(1-methyl-1H-tetrazol-5-yl)benzamide • V-7: 2-chloro-4-iodo-3-(methylsulfonyl)-N-(1-methyl-1H-tetrazol-5-yl)benzamide • V-8: 2-bromo-3-(methylsulfanyl)-N-(1-methyl-1H-tetrazol-5-yl)-4-(trifluoromethyl)benzamide • V-9: 2-bromo-3-(methylsulfinyl)-N-(1-methyl-1H-tetrazol-5-yl)-4-(trifluoromethyl)benzamide • V-10: 2-bromo-3-(methylsulfonyl)-N-(1-methyl-1H-tetrazol-5-yl)-4-(trifluoromethyl)benzamide • V-11: 2-bromo-3-(ethylsulfanyl)-N-(1-methyl-1H-tetrazol-5-yl)-4-(trifluoromethyl)benzamide • V-12: 2-bromo-3-(ethylsulfinyl)-N-(1-methyl-1H-tetrazol-5-yl)-4-(trifluoromethyl)benzamide • V-13: 2-bromo-3-(ethylsulfonyl)-N-(1-methyl-1-1H-tetrazol-5-yl)-4-(trifluoromethyl)benzamide • V-14: 2-cyclopropyl-3-(ethylsulfanyl)-N-(1-methyl-1H-tetrazol-5-yl)-4-(trifluoromethyl)benzamide Herbicidal Pre-Emergence Action: […]

Hordeum murinum [2] = experiment: Pre-emergence herbicidal action, HORMU; conditions: dosage 320 g/ha, scored visually after 3 weeks vs untreated controls (100% = plants have died)
Outline: as §1

Lolium rigidum = experiment: Pre-emergence herbicidal action, LOLRI; conditions: dosage 320 g/ha, scored visually after 3 weeks vs untreated controls (100% = plants have died)
Outline: as §1

Row | Compound | Herbicidal action against ALOMY (Alopecurus myosuroides) | herbicidal action HORMU (Hordeum murinum [1]) | herbicidal activity HORMU (Hordeum murinum [2]) | herbicidal activity LOLRI (Lolium rigidum)
1 | Cn1nnnc1NC(=O)c1ccc(C(F)(F)F)c(CS(C)(=O)=O)c1Br [Example 1-382, 2-bromo-3-[(methylsulfonyl)methyl]-N-(1-methyl-1H-tetrazol-5-yl)-4-(trifluoromethyl)benzamide] | 30 |  |  | 
2 | CCn1nnnc1NC(=O)c1ccc(C(F)(F)F)c(CS(C)(=O)=O)c1SC [Example 2-163] |  | 80 |  | 
3 | CCCn1nnnc1NC(=O)c1ccc(C(F)F)c(C[S+]([O-])CC)c1Cl (stereo not shown) [Example 3-324] |  | 80 | 100% | 100%
4 | Cn1nnnc1NC(=O)c1ccc(C(F)(F)F)c(C[S+](C)[O-])c1Br (stereo not shown) [Example 1-381] | 50 |  |  | 
5 | C=CCSCc1c(C(F)(F)F)ccc(C(=O)Nc2nnnn2C)c1Cl [Example 1-308] |  |  |  | 90%

Source: US12492173B2, “Herbicidal substituted N-tetrazolyl aryl carboxamides” (Bayer Aktiengesellschaft, priority 2019, dated 2025)
